Results taken from paper PMC10349806 (Nature Communications, 2023).
Values joined by “and” are separate entries in the source; they are usually repeats but may differ in a detail not shown here. Equal values may be shown once.

Experiments:
PfCRT variant H273A = target: T1, PfCRT variant H273A (Plasmodium falciparum, UniProt Q9N623, A220S/H273A/I356T/K76T/M74I/N326S/N75E/Q271E/R371I); experiment: CQ uptake assay, oocytes expressing H273A; assay type: cell-based
T1 sequence (Q9N623 1-424 M74I/N75E/K76T/A220S/Q271E/H273A/N326S/I356T/R371I): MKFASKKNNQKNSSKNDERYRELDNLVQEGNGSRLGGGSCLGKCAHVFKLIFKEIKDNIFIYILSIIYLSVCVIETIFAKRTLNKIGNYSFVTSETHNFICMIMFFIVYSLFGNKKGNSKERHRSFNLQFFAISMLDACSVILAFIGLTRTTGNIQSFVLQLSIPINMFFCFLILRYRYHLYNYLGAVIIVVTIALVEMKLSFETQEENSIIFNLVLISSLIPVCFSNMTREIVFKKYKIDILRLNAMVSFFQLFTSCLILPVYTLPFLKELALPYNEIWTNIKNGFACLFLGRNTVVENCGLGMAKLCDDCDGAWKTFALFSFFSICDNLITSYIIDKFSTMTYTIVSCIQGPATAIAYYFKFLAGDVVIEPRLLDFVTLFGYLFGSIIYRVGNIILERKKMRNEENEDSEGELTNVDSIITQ
Protocol: (§1) Site-directed mutagenesis of PfCRT^Dd2 was performed as described using the megaprimer method with overlap extension[21],[54]. The primer pairs used are listed in Supplementary Table 6. Please note that a codon-optimized and oocyte-adapted version of PfCRT^Dd2 was used[22] (Supplementary Fig. 16). The resulting DNA fragment was cloned into the SP64T expression vector and verified by sequencing.
(§2) Oocytes were obtained as described previously. Briefly, adult (>2 years old) female X. laevis frogs (NASCO) were anesthetized in a cooled solution of ethyl 3-amino benzoate methanesulfonate (0.1%, w/v), followed by a surgical removal of parts of the ovary. The ovary lobes were carefully dissected and small pieces of oocytes were incubated in Ca^2+-free ND96 buffer (96 mM NaCl, 2 mM KCl, 1 mM MgCl2 buffered with 5 mM HEPES/NaOH, pH 7.5) supplemented with collagenase D (0.1%, w/v; Roche), BSA (0.5%, w/v), and 9 mm Na2HPO4 at 18 °C for 14-16 h while gentle shaking. After incubation, the oocytes were carefully washed several times with ND96 buffer (96 mM NaCl, 2 mM KCl, 1.8 mM CaCl2, 1 mM MgCl2 buffered with 5 mM HEPES/NaOH, pH 7.5) supplemented with 100 mg l^−1 gentamycin). Defolliculated and healthy-looking stage V-VI oocytes were manually selected for RNA microinjection. The RNA was generated as following: The codon-optimized sequences of PfCRT variants were cloned into the pSP64T expression vector. After vector linearization using the restriction endonucleases BamHI or SalI (New England Biolabs), transcription was performed using the in vitro SP6 mMessage mMachine Kit (Ambion)[34]. The obtained RNA was kept at −80 °C and diluted with nuclease-free water to a concentration of 0.6 μg μl^−1. Precision-bore glass capillary tubes (3.5-inch glass capillaries; Drummond Scientific Co.) were pulled on a vertical puller (P-87 Flaming/Brown micropipette puller, Sutter Instrument Co.), graduated, and placed on a microinjector (Nanoject II Auto-Nanoliter Injector, Drummond Scientific Co.). 50 nl of nuclease-free water alone (control oocytes) or 50 nl of 0.6 μg μl^−1 RNA were injected under stereomicroscopic control. Injected oocytes were incubated for 46–72 h at 18 °C with twice-daily buffer changes before usage in experiments.
Drug uptake assays were performed as described previously[21],[22],[24],[34]. […] The direction of radio-labeled drug transport is here from the mostly acidic extracellular solution (pH 4.5 or 6.0, as indicated) into the oocyte cytosol (pH ∼ 7.2), which corresponds to the efflux of drug from the acidic digestive vacuole (pH 5.2) into the parasite cytoplasm (pH 7.2). The topology of PfCRT in the oolemma is such that both the N- and C-terminus face the extracellular milieu[3],[22]. In the parasite, the N- and C-terminus face the lumen of the digestive vacuole. CQ uptake kinetics were performed by incubating oocytes in ND96 buffer adjusted to a pH of 4.5, 5.0, 5.5, or 6.0 and supplemented with 50 nM [^3H]CQ and one of 7 different CQ concentrations (10 µM, 50 µM, 100 µM, 200 µM, 300 µM, 400 µM, 500 µM CQ). The reaction was stopped at the 60 min time point, which is in the linear uptake range[22],[34] (Supplementary Fig. 17). […] The radioactivity of each sample was measured using a liquid scintillation analyzer Tri-Carb 4910 TR (PerkinElmer). Oocytes that were injected with water instead of RNA were analyzed in parallel, representing the uptake of a drug by diffusion and/or endogenous permeation pathways. […]

PfCRT variant E207Q = experiment: CQ uptake assay, oocytes expressing E207Q; assay type: cell-based, Plasmodium falciparum
Protocol: as §1, §2
Drug uptake assays were performed as described previously[21],[22],[24],[34]. […] The direction of radio-labeled drug transport is here from the mostly acidic extracellular solution (pH 4.5 or 6.0, as indicated) into the oocyte cytosol (pH ∼ 7.2), which corresponds to the efflux of drug from the acidic digestive vacuole (pH 5.2) into the parasite cytoplasm (pH 7.2). The topology of PfCRT in the oolemma is such that both the N- and C-terminus face the extracellular milieu[3],[22]. In the parasite, the N- and C-terminus face the lumen of the digestive vacuole. […] For determination of the amount of drug uptake for each oocyte, the reaction medium was removed and the oocytes were washed three times with 2 ml of ice-cold ND96 buffer. Each oocyte was individually transferred to a scintillation vial containing 5% sodium dodecyl sulfate (200 μl) for lysis. […] Oocytes that were injected with water instead of RNA were analyzed in parallel, representing the uptake of a drug by diffusion and/or endogenous permeation pathways. […] The specific PfCRT-mediated uptake was determined by subtracting the corresponding background value measured in water-injected oocytes from that of PfCRT-expressing oocytes. […]

[1] = H273A, 50 µM CQ, 1 h, mean ± SEM

SMILES: CCN(CC)CCCC(C)Nc1ccnc2cc(Cl)ccc12 (stereo not shown) [CQ, chloroquine]
- Activity at pH 4.5 (PfCRT variant H273A; [1]): 0.08 ± 0.04 pmol h-1 oocyte-1
- Activity at pH 6.0 (PfCRT variant H273A; [1]): 2.43 ± 0.40 pmol h-1 oocyte-1
- R-value (PfCRT variant H273A; H273A, CQ transport at pH 4.5 / pH 6.0): 0.03 ± 0.02
- H273A transport activity pH 4.5 (PfCRT variant H273A; pH 4.5, single replicates, Fig 1d left): 0.17 pmol oocyte-1 h-1 and 0.00 pmol oocyte-1 h-1 and 0.06 pmol oocyte-1 h-1
- H273A transport activity pH 6.0 (PfCRT variant H273A; pH 6.0, single replicates, Fig 1d left): 2.70 pmol oocyte-1 h-1 and 3.11 pmol oocyte-1 h-1 and 1.48 pmol oocyte-1 h-1
- Activity at pH 4.5 (PfCRT variant E207Q; E207Q, 50 µM CQ, 1 h, mean ± SEM): 2.15 ± 0.52 pmol h-1 oocyte-1
- R-value (PfCRT variant E207Q; E207Q, CQ transport at pH 4.5 / pH 6.0): 0.88 ± 0.01
- E207Q transport activity pH 4.5 (PfCRT variant E207Q; pH 4.5, individual replicates, Fig 6b): 1.41 pmol oocyte-1 h-1 and 3.42 pmol oocyte-1 h-1 and 1.62 pmol oocyte-1 h-1
- E207Q transport activity pH 6.0 (PfCRT variant E207Q; pH 6.0, individual replicates, Fig 6b): 1.59 pmol oocyte-1 h-1 and 3.69 pmol oocyte-1 h-1 and 1.95 pmol oocyte-1 h-1
- E207Q R-value (PfCRT variant E207Q; ratio of activity pH 4.5 / pH 6.0): 0.89 and 0.93 and 0.83
